Source: ChEMBL document CHEMBL1156415, “Selective inhibition of porcine endogenous retrovirus replication in human cells by acyclic nucleoside phosphonates” (Antimicrob Agents Chemother, 2007)

Key:
[1] = test system: Porcine endogenous retrovirus; test: Antiviral activity against PERV infected in human 293T cells assessed as inhibition of proximal DNA synthesis after 24 hrs by RT-PCR; format: functional, organism-based; details: Porcine type-C oncovirus, HEK-293T
[2] = Cytotoxicity against human 293T cells assessed as inhibition of cell proliferation by tetrazolium dye method; format: cell-based, HEK-293T
[3] = Inhibition of PERV reverse transcriptase from pig PK15 cells; format: cell-based, Porcine endogenous retrovirus
[4] = Inhibition of PERV reverse transcriptase from Kagoshima pig KK5 cells; design: species or system Porcine endogenous retrovirus
[5] = Inhibition of PERV reverse transcriptase from Kagoshima pig DRK4 cells; design: species or system Porcine endogenous retrovirus
[6] = molecular target: Human immunodeficiency virus type 1 reverse transcriptase (Human immunodeficiency virus 1, UniProt Q72547); test: Inhibition of HIV1 recombinant reverse transcriptase

| EC50 [1] | IC50 [3] | IC50 [4] | IC50 [5] | IC50 [6] | SMILES | CC50 [2] |
| --- | --- | --- | --- | --- | --- | --- |
| > 100000 nM | – | – | – | – | Nc1ccn([C@@H]2CS[C@H](CO)O2)c(=O)n1 [LAMIVUDINE] | > 100000 nM |
| – | 450 nM | 150 nM | 170 nM | 36 nM | Cc1cn([C@H]2C=C[C@@H](COP(=O)(O)OP(=O)(O)OP(=O)(O)O)O2)c(=O)[nH]c1=O [STAVUDINE TRIPHOSPHATE] | – |
| 7800 nM | – | – | – | – | Cc1cn([C@H]2C=C[C@@H](CO)O2)c(=O)[nH]c1=O [STAVUDINE] | > 100000 nM |
| 2800 nM | – | – | – | – | C[C@H](Cn1cnc2c(N)ncnc21)OCP(=O)(O)O [TENOFOVIR ANHYDROUS] | > 100000 nM |
| – | 59 nM | 19 nM | 20 nM | 54 nM | Cc1cn([C@H]2C[C@H](N=[N+]=[N-])[C@@H](COP(=O)(O)OP(=O)(O)OP(=O)(O)O)O2)c(=O)[nH]c1=O [ZIDOVUDINE TRIPHOSPHATE] | – |
| 23 nM | – | – | – | – | Cc1cn([C@H]2C[C@H](N=[N+]=[N-])[C@@H](CO)O2)c(=O)[nH]c1=O [ZIDOVUDINE] | > 10000 nM |

Continued, molecule first:

| SMILES | EC50 [1] | IC50 [3] | IC50 [4] | IC50 [5] | IC50 [6] | CC50 [2] |
| --- | --- | --- | --- | --- | --- | --- |
| Cc1cn([C@H]2C[C@H](O)[C@](CO)(N=[N+]=[N-])O2)c(=O)[nH]c1=O | > 100000 nM | – | – | – | – | > 100000 nM |
| Nc1cc(OCCOCP(=O)(O)O)nc(N)n1 | 180 nM | – | – | – | – | > 100000 nM |
| C[C@H](Cn1cnc2c(N)nc(N)nc21)OCP(=O)(O)O | 280 nM | – | – | – | – | > 100000 nM |
| Nc1ncnc2c1ncn2CCOCP(=O)(O)O [ADEFOVIR] | 3400 nM | – | – | – | – | > 100000 nM |
| C#C[C@@]1(CO)C=C[C@H](n2cc(C)c(=O)[nH]c2=O)O1 [CENSAVUDINE] | > 100000 nM | – | – | – | – | > 100000 nM |
| Cc1ccnc2c1NC(=O)c1cccnc1N2C1CC1 [NEVIRAPINE] | > 100000 nM | – | – | – | – | > 100000 nM |
